Experimental data taken from BindingDB's records for doi:10.1016/j.bmcl.2006.08.044 (Glaxosmithkline, 2006).

Biological target: Integrin alpha-4/beta-1 [T112H] (Homo sapiens, UniProt P05556+P13612, T112H)
Test: Jurkat J6 Scintillation Proximity Assay
Method: J6 cells (1 million cells/well) were allowed to coat wheat germ agglutinin coated SPA beads (Amersham, 1 mg/well) in assay buffer. Tritiated 3H Standard Compound A and test compounds were dissolved in an appropriate solvent and diluted in assay buffer. Data are presented as mean pKi.

Row | Compound | Ki
1 | Cc1ccccc1NC(=O)Nc1ccc(-c2cccn(Cc3ccc([C@H](C)CC(=O)O)cc3)c2=O)c(Cl)c1 [(3R)-3-(4-{[3-(2-chloro-4-{[(2-methylphenyl)carbamoyl]amino}phenyl)-2-oxo-1,2-dihydropyridin-1-yl]methyl}phenyl)butanoic acid] | 0.79 nM
2 | Cc1ccccc1NC(=O)Nc1ccc(-c2cccn(Cc3ccc([C@H](C)CC(=O)O)cc3)c2=O)c(C)c1 [(3R)-3-(4-{[3-(2-methyl-4-{[(2-methylphenyl)carbamoyl]amino}phenyl)-2-oxo-1,2-dihydropyridin-1-yl]methyl}phenyl)butanoic acid] | 2.51 nM
3 | Cc1ccccc1NC(=O)Nc1ccc(-c2cccn(Cc3ccc([C@H](C)CC(=O)O)cc3)c2=O)cc1Cl [(3R)-3-(4-{[3-(3-chloro-4-{[(2-methylphenyl)carbamoyl]amino}phenyl)-2-oxo-1,2-dihydropyridin-1-yl]methyl}phenyl)butanoic acid] | 1 nM
4 | CCOc1cc(-c2cccn(Cc3ccc([C@H](C)CC(=O)O)cc3)c2=O)ccc1NC(=O)Nc1ccccc1C [(3R)-3-(4-{[3-(3-ethoxy-4-{[(2-methylphenyl)carbamoyl]amino}phenyl)-2-oxo-1,2-dihydropyridin-1-yl]methyl}phenyl)butanoic acid] | 2 nM
5 | CCc1cc(-c2cccn(Cc3ccc([C@H](C)CC(=O)O)cc3)c2=O)ccc1NC(=O)Nc1ccccc1C [(3R)-3-(4-{[3-(3-ethyl-4-{[(2-methylphenyl)carbamoyl]amino}phenyl)-2-oxo-1,2-dihydropyridin-1-yl]methyl}phenyl)butanoic acid] | 6.31 nM
6 | Cc1ccccc1NC(=O)Nc1ccc(-c2cccn(Cc3ccc([C@H](C)CC(=O)O)cc3)c2=O)cc1C [(3R)-3-(4-{[3-(3-methyl-4-{[(2-methylphenyl)carbamoyl]amino}phenyl)-2-oxo-1,2-dihydropyridin-1-yl]methyl}phenyl)butanoic acid] | 1 nM
7 | Cc1ccccc1NC(=O)Nc1ccc(-c2cccn(Cc3ccc([C@H](C)CC(=O)O)cc3)c2=O)cc1OC(F)(F)F [(3R)-3-(4-{[3-(4-{[(2-methylphenyl)carbamoyl]amino}-3-(trifluoromethoxy)phenyl)-2-oxo-1,2-dihydropyridin-1-yl]methyl}phenyl)butanoic acid] | 3.98 nM
8 | Cc1ccccc1NC(=O)Nc1ccc(-c2cccn(Cc3ccc([C@@H](C)CC(=O)O)cc3)c2=O)c(Cl)c1 [(3S)-3-(4-{[3-(2-chloro-4-{[(2-methylphenyl)carbamoyl]amino}phenyl)-2-oxo-1,2-dihydropyridin-1-yl]methyl}phenyl)butanoic acid] | 25.1 nM
9 | Cc1ccccc1NC(=O)Nc1ccc(-c2cccn(Cc3ccc([C@@H](C)CC(=O)O)cc3)c2=O)c(C)c1 [(3S)-3-(4-{[3-(2-methyl-4-{[(2-methylphenyl)carbamoyl]amino}phenyl)-2-oxo-1,2-dihydropyridin-1-yl]methyl}phenyl)butanoic acid] | 19.9 nM
10 | Cc1ccccc1NC(=O)Nc1ccc(-c2cccn(Cc3ccc([C@@H](C)CC(=O)O)cc3)c2=O)cc1Cl [(3S)-3-(4-{[3-(3-chloro-4-{[(2-methylphenyl)carbamoyl]amino}phenyl)-2-oxo-1,2-dihydropyridin-1-yl]methyl}phenyl)butanoic acid] | 2 nM
11 | CCOc1cc(-c2cccn(Cc3ccc([C@@H](C)CC(=O)O)cc3)c2=O)ccc1NC(=O)Nc1ccccc1C [(3S)-3-(4-{[3-(3-ethoxy-4-{[(2-methylphenyl)carbamoyl]amino}phenyl)-2-oxo-1,2-dihydropyridin-1-yl]methyl}phenyl)butanoic acid] | 5.01 nM
12 | CCc1cc(-c2cccn(Cc3ccc([C@@H](C)CC(=O)O)cc3)c2=O)ccc1NC(=O)Nc1ccccc1C [(3S)-3-(4-{[3-(3-ethyl-4-{[(2-methylphenyl)carbamoyl]amino}phenyl)-2-oxo-1,2-dihydropyridin-1-yl]methyl}phenyl)butanoic acid] | 50.1 nM
13 | Cc1ccccc1NC(=O)Nc1ccc(-c2cccn(Cc3ccc([C@@H](C)CC(=O)O)cc3)c2=O)cc1C [(3S)-3-(4-{[3-(3-methyl-4-{[(2-methylphenyl)carbamoyl]amino}phenyl)-2-oxo-1,2-dihydropyridin-1-yl]methyl}phenyl)butanoic acid] | 2.51 nM
14 | Cc1ccccc1NC(=O)Nc1ccc(-c2cccn(Cc3ccc([C@@H](C)CC(=O)O)cc3)c2=O)cc1OC(F)(F)F [(3S)-3-(4-{[3-(4-{[(2-methylphenyl)carbamoyl]amino}-3-(trifluoromethoxy)phenyl)-2-oxo-1,2-dihydropyridin-1-yl]methyl}phenyl)butanoic acid] | 19.9 nM
